These results are taken from publication PMC10584170, “Machine learning-based phenotypic imaging to characterise the targetable biology of Plasmodium falciparum male gametocytes for the development of transmission-blocking antimalarials” (PLOS Pathogens, 2023).

Where two headings read alike, the source gives them in different places.

For series [1], the system named is P. falciparum male gametocytes. The series can be described thus: P. falciparum Dual Gamete Formation Assay (PfDGFA), male readout (exflagellation). As to conditions: for Average inhibition male (%) / % inhibition male (individual replicates) R1 / % inhibition male (individual replicates) R4 / % inhibition male (individual replicates) R3: 24h preincubation with gametocytes; for Average inhibition male (%): average of replicates; for % inhibition male (individual replicates) R1: replicate R1; for % inhibition male (individual replicates) R4: replicate R4; for Selectivity Ratio M: HepG2 Tox50 versus male IC50; for IC50: read-out: Male IC50; for % inhibition male (individual replicates) R3: replicate R3. The format is cell-based, Plasmodium falciparum NF54. In short, it runs like this:
(§1)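 NF54 mature gametocytes (d14), cpd 24 h 37°C hypoxic gas; trigger: xanthurenic acid ookinete medium + Cy3 anti-Pfs25, 4°C 4 min → 28°C 4 min. Male: exflagellation centres, brightfield x6. Female: Pfs25+ gametes, fluorescence, +24 h 28°C dark.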

In series [2] the test system is P. falciparum female gametocytes. The series can be described thus: P. falciparum Dual Gamete Formation Assay (PfDGFA), female readout (Pfs25-positive female gametes). As to conditions: for Average inhibition female (%) / % inhibition female (individual replicates) R1 / % inhibition female (individual replicates) R3 / % inhibition female (individual replicates) R4: 24h preincubation with gametocytes; for Average inhibition female (%): average of replicates; for % inhibition female (individual replicates) R1: replicate R1; for % inhibition female (individual replicates) R3: replicate R3; for % inhibition female (individual replicates) R4: replicate R4; for Selectivity ratio F: HepG2 Tox50 versus female IC50; for IC50: read-out: Female IC50. The format is cell-based, Plasmodium falciparum NF54. Put shortly: as §1

For another series, the system named is HepG2 cells. The series can be described thus: HepG2 cytotoxicity counter-screen. Particulars: cytotoxic activity against HepG2 cells. (In general: Counterscreens check selectivity or assay interference.)
The mark [3] stands for this setting: PfDGFA, 24 h incubation with gametocytes before induction, exflagellation readout.
[4] abbreviates: PfDGFA, 24 h incubation with gametocytes before induction, female gamete readout.

As for `Cl.N=C(NCCCCC1CCCCC1)c1cccc(C(=N)NCCCCC2CCCCC2)n1` [TCMDC-137452], in series [1] (2µM), the “Average inhibition male (%)” value was 99.3%, the “% inhibition male (individual replicates) R1” value is reported as 93.4% and the “% inhibition male (individual replicates) R4” value was found to be 104.5%. Moreover, in series [1], the “Selectivity Ratio M” value is recorded as 2.02. Also, the IC50 (usually the concentration that gives 50% inhibition) in series [1] (setting [3]) worked out at 1.32 µM. In addition, in series [2] (2µM), the “Average inhibition female (%)” value is 47.7%, the “% inhibition female (individual replicates) R1” value is 57.8%, the “% inhibition female (individual replicates) R3” value is recorded as 31.9% and the “% inhibition female (individual replicates) R4” value is given as 45.9%. Also, the “Selectivity ratio F” value in series [2] turned out to be 1.43. For the same compound, the IC50 in series [2] (setting [4]) is 1.86 µM. The Tox50 in the series with HepG2 cells amounted to 2.66 µM.
`COc1cc(CNCCCCCCNCc2cc(OC)c3ccccc3c2OC)c(OC)c2ccccc12.CS(=O)(=O)O` [TCMDC-137502]: the “Selectivity Ratio M” value in series [1] is 3.09. Further, in series [1] (PfDGFA at 2µM), the “Average inhibition male (%)” value was 85.1%, the “% inhibition male (individual replicates) R1” value is reported as 95.4%, the “% inhibition male (individual replicates) R3” value worked out at 87.5% and the “% inhibition male (individual replicates) R4” value is 90.2%. Also, the IC50 in series [1] (setting [3]) was found to be 1.21 µM. The compound also returned a HitlevelM in series [1] (number of replicates with >50% inhibition in the male readout, 2µM) of 4. The “Selectivity ratio F” value in series [2] turned out to be 1.24. In series [2] (PfDGFA at 2µM), the “Average inhibition female (%)” value was determined as 71.8%, the “% inhibition female (individual replicates) R1” value was found to be 79.7%, the “% inhibition female (individual replicates) R3” value stood at 78.6% and the “% inhibition female (individual replicates) R4” value is listed as 84.0%. The IC50 in series [2] (setting [4]) turned out to be 3.03 µM. The HitlevelF in series [2] (number of replicates with >50% inhibition in the female readout, 2µM) worked out at 3. In addition, the Tox50 with HepG2 cells was 3.76 µM.
In the case of `Clc1ccc(/N=C(/NCCCCCCCN/C(=N\c2ccc(Cl)cc2)Nc2ccc(Cl)cc2)Nc2ccc(Cl)cc2)cc1` [TCMDC-137529], in series [1] (2µM), the “Average inhibition male (%)” value is 95.0%, the “% inhibition male (individual replicates) R1” value came to 95.9% and the “% inhibition male (individual replicates) R4” value is 94.9%. Also, the “Selectivity Ratio M” value in series [1] came out at 2.06. Besides, in series [1] (setting [3]), the IC50 turned out to be 1.12 µM. Moreover, in series [2] (2µM), the “Average inhibition female (%)” value is listed as 51.0%, the “% inhibition female (individual replicates) R1” value is on record as 61.8%, the “% inhibition female (individual replicates) R3” value is 39.3% and the “% inhibition female (individual replicates) R4” value is recorded as 54.5%. Further, the “Selectivity ratio F” value in series [2] turned out to be 1.6. The IC50 in series [2] (setting [4]) was found to be 1.44 µM. This compound also displayed a Tox50 in the series with HepG2 cells of 2.3 µM.
As to `CCCCCCC(N)c1ccc(OCCCOc2ccc(C(N)CCCCCC)cc2)cc1.Cl` (centres unmarked) [TCMDC-137621], in series [1] (2µM), the “Average inhibition male (%)” value worked out at 94.3%, the “% inhibition male (individual replicates) R1” value amounted to 98.4%, the “% inhibition male (individual replicates) R3” value turned out to be 82.0% and the “% inhibition male (individual replicates) R4” value came to 99.6%. In addition, the “Selectivity Ratio M” value in series [1] was found to be 3.34. The IC50 in series [1] (setting [3]) was found to be 1.07 µM. In addition, in series [2] (2µM), the “Average inhibition female (%)” value is on record as 47.1%, the “% inhibition female (individual replicates) R1” value turned out to be 37.5%, the “% inhibition female (individual replicates) R3” value was found to be 53.9% and the “% inhibition female (individual replicates) R4” value stood at 41.4%. Besides, the “Selectivity ratio F” value in series [2] stood at 2.08. For the same compound, the IC50 in series [2] (setting [4]) was 1.71 µM. The Tox50 in the series with HepG2 cells worked out at 3.56 µM.
With `CC(CO)(CO)NCc1cc2c3ccccc3c(CNC(C)(CO)CO)cc2c2ccccc12.CS(=O)(=O)O` [TCMDC-137752], the “Selectivity Ratio M” value in series [1] stood at 14.99. Moreover, the IC50 stood at 0.87 µM in series [1] (Plasmodium falciparum, 24 h) and 4.79 µM in series [2] (Plasmodium falciparum, 24 h). Further, the inhibition (usually the percentage by which the read-out fell short of the control) at 2 µM in series [1] (Plasmodium falciparum, read-out: % inhibition male (individual replicates) R1) stood at 93.1%; in series [1] (Plasmodium falciparum, read-out: % inhibition male (individual replicates) R2) it was 93.5%; in series [1] (Plasmodium falciparum, read-out: % inhibition male (individual replicates) R3), 85.5%; in series [1] (Plasmodium falciparum, read-out: % inhibition male (individual replicates) R4), 90.9%; in series [1] (Plasmodium falciparum, read-out: Average inhibition male (%)), 90.8%; in series [2] (Plasmodium falciparum, read-out: % inhibition female (individual replicates) R1), 37.9%. The inhibition at 2 µM in series [2] (Plasmodium falciparum, read-out: % inhibition female (individual replicates) R2) worked out at 48.4%; in series [2] (Plasmodium falciparum, read-out: % inhibition female (individual replicates) R3), 18.2%; in series [2] (Plasmodium falciparum, read-out: % inhibition female (individual replicates) R4), 48.2%; in series [2] (Plasmodium falciparum, read-out: Average inhibition female (%)) it was 38.2%. Moreover, in series [2], the “Selectivity ratio F” value is given as 2.72. In addition, the Tox50 in the series with HepG2 cells is 13.04 µM.
On to `CCOc1c(CCNCCCCNCCc2ccc3ccccc3c2OCC)ccc2ccccc12.CS(=O)(=O)O` [TCMDC-137759], for which, in series [1] (2µM), the “Average inhibition male (%)” value was found to be 92.2%, the “% inhibition male (individual replicates) R1” value is reported as 95.9%, the “% inhibition male (individual replicates) R3” value was determined as 97.8% and the “% inhibition male (individual replicates) R4” value was 100.2%. Also, the “Selectivity Ratio M” value in series [1] was 2.62. The IC50 in series [1] (setting [3]) came out at 1.31 µM. Also, in series [2] (2µM), the “Average inhibition female (%)” value amounted to 82.4%, the “% inhibition female (individual replicates) R1” value came to 86.3%, the “% inhibition female (individual replicates) R3” value amounted to 88.2% and the “% inhibition female (individual replicates) R4” value is on record as 86.8%. Besides, the “Selectivity ratio F” value in series [2] turned out to be 1.48. Further, the IC50 in series [2] (setting [4]) was 2.33 µM. The same compound registered a Tox50 with HepG2 cells of 3.44 µM.
